The results in this text go back to PubChem BioAssay (NCI).

Each structure is given as a SMILES string. Several values for one entry are separate records, joined by “and”; a condition that tells them apart may be missing. Identical values can stand only once.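 Tested at 5 concentrations; 48 h exposure; 96-well plates; endpoints linearly interpolated, else capped at highest concentration. Here, GI50 denotes the concentration required for 50% inhibition of growth. TGI denotes the concentration required for complete inhibition of growth.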

Common to all, as to test: NCI anticancer screen, dose series, 48 h
For test [1], the system named is OVCAR-4 ovarian.
The test system of test [2] is MDA-MB-435.
Test [3] concerns NCI-H226 lung.
Test [4] deals with CCRF-CEM leukemia.
The test system of test [5] is 786-0 renal.
For test [6], the system named is BT-549 breast.
For test [7], the system named is LOX IMVI melanoma.
Test [8] concerns HT29 colon.
The subject of test [9] is SK-MEL-28 melanoma.
Test [10] deals with SNB-19 CNS.

Turning to `Nc1c(O)c(S(=O)(=O)O)c(O)c2c1C(=O)c1ccccc1C2=O`, the GI50 in test [1] is 3.06 µM; in [2], 3.33 µM; in test [3], 4.12 µM; in [4], 3.1 µM; in test [5], 4.73 µM; in [6], 2.78 µM. In addition, the GI50 in test [7] was 3.08 µM; in [8], 2.72 µM; in test [9] it was 4.09 µM; in [10] it was 3.8 µM. Further, the TGI in test [1] is 20.8 µM; in test [2] it was above 100 µM; in test [3] it was above 100 µM; in [4], 11 µM; in test [5], 41.3 µM; in test [6], 8.94 µM. Further, the TGI was 12.3 µM in test [7], 10.4 µM in [8], above 100 µM in [9] and 52.4 µM in [10].
With `COc1ccc(Cn2cc(Cn3c(=O)c(-c4nc5ccccc5[nH]4)cc4ccccc43)nn2)c(OC)c1OC`, the GI50 in test [1] was 1.31 µM; in test [2], 0.0821 µM and 0.0453 µM; in test [3], 0.338 µM; in test [4], 0.174 µM and 0.443 µM; in test [5], 0.457 µM; in test [6], 0.502 µM. The GI50 was 0.254 µM and 0.112 µM in test [7]; 0.0712 µM in test [8]; 0.539 µM and 0.912 µM in test [9]; 0.423 µM in [10]. Also, the TGI in test [1] is above 100 µM; in test [2] it was 0.186 µM and 0.17 µM; in [3], above 100 µM; in [5] it was 2.86 µM; in test [6], 1.52 µM; in [8], 4.05 µM. Besides, the TGI in [9] is 1.66 µM and 4.61 µM; in [10] it was above 100 µM.
In the case of `CC1(C)CC[C@]2(C(=O)O)CC[C@]3(C)[C@H](CC[C@@H]4[C@@]5(C)CCC(=O)C(C)(C)[C@@H]5CC[C@]43C)[C@H]2[C@H]1OC(=O)C(F)(F)F`, the GI50 in [1] was 13.1 µM; in [2], 10.6 µM; in [3] it was 13.5 µM; in test [4] it was 9.51 µM; in test [5], 14.3 µM; in test [6], 9.3 µM. In addition, the GI50 in [7] was 5.91 µM; in [8], 4.06 µM; in test [9] it was 13.6 µM; in [10], 13.8 µM. For the same compound, the TGI is 29.8 µM in [1]; 26.9 µM in [2]; 34 µM in test [3]; 41.5 µM in test [4]; 29.5 µM in test [5]; 22.3 µM in test [6]. In addition, the TGI in test [7] was 18.9 µM; in test [8], 16.7 µM; in test [9], 28.2 µM; in [10] it was 27.9 µM.
As for `COc1ccc(C(=O)N/N=C/c2ccc(O)cc2O)cc1Nc1ccnc(C(F)(F)F)c1`, the GI50 in test [1] was 0.27 µM; in test [2], 0.507 µM; in test [3] it was 1.39 µM; in test [4] it was 0.128 µM; in test [5], 0.998 µM; in test [6], 0.916 µM. The GI50 in test [7] was 0.454 µM; in [8], 3.6 µM; in [9] it was 0.298 µM; in [10], 0.816 µM. Besides, the TGI came out at 21.1 µM in test [2]; 11.6 µM in [3]; 1.44 µM in test [4]; 9.62 µM in test [5]; 23.8 µM in test [6]; 16.4 µM in test [7]. For the same compound, the TGI in test [8] was above 69.2 µM; in test [9] it was 4.98 µM; in test [10], 56.7 µM.
In the case of `C[C@@]12CCC[C@@](C)(C(=O)O)C1CC[C@@]13CC(=O)[C@@](CO)(CCC12)C3` (some centres not stated), the GI50 in test [1], in test [2], in test [3], in [4], in [5] and in [6] was above 100 µM throughout. Also, the GI50 in test [7], in test [8], in test [9] and in test [10] was above 100 µM throughout. The TGI in [1], in [2], in test [3], in test [4], in [5] and in test [6] was above 100 µM each time. In addition, the TGI in test [7], in test [8], in test [9] and in [10] was above 100 µM in each case.
Regarding `C=C1CO[C@@H]2C[C@@H]1CCC1(C)OC1CC/C(C)=C/CC[C@@]2(C)O` (some centres not stated), the GI50 was 20.9 µM in [1]; 18.5 µM in [2]; above 100 µM in [3]; 15.1 µM in [4]; above 20.3 µM in [5]; 26.4 µM in test [6]. Moreover, the GI50 is 7.55 µM in [7], 24.5 µM in test [8], above 89.6 µM in [9] and above 85.9 µM in test [10]. The TGI in [1] was 59.6 µM; in test [2] it was 42.2 µM; in [3], above 100 µM; in test [4] it was 38.1 µM; in test [5], above 53.5 µM; in test [6] it was 61.5 µM. In addition, the TGI in [7] was 21.4 µM; in [8], above 71 µM; in test [9] it was above 100 µM; in test [10] it was above 100 µM.
Regarding `Cc1nc2ccc(NCCN(C)C)c3c(=O)c4cc(O)ccc4n1c23`, the TGI in [1] turned out to be 3.38 µM; in [2], 13.7 µM; in [3] it was 1.7 µM; in [4], 2.5 µM; in [5], 10.5 µM; in test [6], 19 µM. The TGI in test [7] came out at 2.62 µM; in test [8] it was 2.4 µM; in test [9] it was 11.7 µM; in test [10], 7.06 µM.
With `OC(C(=Nc1ccccc1)c1ccccc1)c1ccccc1` (configuration not stated), the TGI came to 51.8 µM in [1]; 11.8 µM in test [2]; 34.1 µM in test [3]; 27.9 µM in test [4]; 41.9 µM in test [5]; 9.51 µM in test [6]. The TGI in test [7] was 38.2 µM; in [8], 25.6 µM; in [9] it was 15.2 µM; in [10], 31.6 µM.
On to `CC(C)[C@@H](CS(=O)(=O)C(C)C)N1C(=O)[C@@](C)(CC(=O)O)C[C@H](c2cccc(Cl)c2)[C@H]1c1ccc(Cl)cc1`, for which the GI50 was 7.45 µM in test [1]; 15.3 µM in test [2]; 0.193 µM in test [3]; 18.2 µM in test [4]; 20.8 µM in test [5]; 12.9 µM in test [6]. Moreover, the GI50 is 0.485 µM in test [7], 26.6 µM in test [8], 15.5 µM in [9] and 14.6 µM in [10]. Further, the TGI is above 75.9 µM in test [1]; 45.5 µM in test [2]; 0.422 µM in test [3]; 66.1 µM in [4]; 75.2 µM in test [5]; 40.3 µM in test [6]. Also, the TGI in test [7] is 21 µM; in test [8], above 90.1 µM; in test [9], 61.2 µM; in [10], 66.5 µM.
On to `Cc1ccc(-n2c(-c3ccc(Cl)cc3)cs/c2=N\NC(=O)COc2n[nH]c(=O)c3ccccc23)cc1`, for which the GI50 in test [1] is above 100 µM; in test [2], above 100 µM; in test [3] it was 39.6 µM; in [4], above 100 µM; in test [5], 51.4 µM; in test [6] it was above 100 µM. Besides, the GI50 is above 100 µM in test [7], above 100 µM in test [8], above 100 µM in test [9] and 40 µM in [10]. Moreover, the TGI in test [1], in [2], in [3], in [4], in test [5] and in test [6] was above 100 µM each time. Besides, the TGI in [7], in test [8], in test [9] and in [10] was above 100 µM in each case.
Regarding `c1ccc2c(c1)ccc1c3ccccc3ccc21`, the GI50 in [1], in test [2], in test [3], in test [4], in test [5] and in [6] was above 50 µM throughout. Further, the GI50 in [7], in test [8], in [9] and in [10] was above 50 µM throughout. The TGI in test [1], in test [2], in [3], in test [4], in test [5] and in test [6] was above 50 µM each time. Moreover, the TGI in test [7], in test [8], in [9] and in [10] was above 50 µM throughout.
As for `Oc1ccc(SCc2ccc(NCc3ccccc3)cc2)cc1`, the TGI in test [1] is above 100 µM; in test [2], above 100 µM; in [3], above 100 µM; in test [4] it was 64.8 µM; in test [5], 26.8 µM; in test [6], above 100 µM. The TGI in test [7] was 73.9 µM; in test [8] it was 48.3 µM; in test [9], above 100 µM; in test [10], 64.8 µM.
On to `CC(C)CC(=O)CC(O)C(Cl)(Cl)Cl` (configuration not stated), for which the TGI in test [1], in test [2], in [3], in test [4], in test [5] and in [6] was above 100 µM each time. In addition, the TGI in test [7], in test [8], in test [9] and in test [10] was above 100 µM throughout.
`Oc1ccc(-c2nc3ccc4[nH]ncc4c3c3c2CCCC3)c2cccnc12`: the GI50 was 0.781 µM in test [1]; 0.148 µM in test [2]; 1.22 µM in [3]; 0.204 µM in test [4]; 0.435 µM in [5]; 0.421 µM in test [6]. The GI50 in test [7] is 0.203 µM; in [8] it was 1.09 µM; in [9], 0.498 µM; in test [10], 0.164 µM. Further, the TGI in test [1] was found to be 6.06 µM; in test [2], 2.77 µM; in test [3], 5.79 µM; in test [4] it was 11.8 µM; in test [5], 3.95 µM; in test [6] it was 2.58 µM. Moreover, the TGI was determined as 4.01 µM in test [7], 6.73 µM in test [8], 8.61 µM in [9] and 13.1 µM in test [10].
